Reference: US20230167467A1, “METHODS AND COMPOSITIONS FOR THE PRODUCTION OF ISOBUTENE” (University of Alaska Anchorage, priority 2020, published 2023)

Test system: Engineered strains of E. coli
Type: cell-based
Details: for number of genes with significant changes in expression: vs control, Bon Ferroni corrected p-value<0.05
[1] = after solvent exposure, vs positive control

CC(C)CO [isobutanol]
expression of RNAse adapter protein rapZ: downregulation | expression of accBC (fatty acid biosynthesis): downregulated | expression of adiA: downregulated | expression of bssRS (decreasing biofilm material): upregulated | expression of chaperone genes groLS and dnaJK: increased expression | expression of gadABCE (acid resistance via GABA production): downregulated | expression of gatY and marCRAB loci: upregulation | expression of glpABC (glycerol to glycerone phosphate): increased in expression | expression of heat shock proteins and chaperones hslJORUV: upregulation | expression of ibpAB and clpAB (protein protection and repair): increased | expression of marA: upregulated | change in expression of gene adiA [1]: −2.97 ± 0.87 | change in expression of gene adiC [1]: −2.56 ± 1.03 | change in expression of gene adiY [1]: −0.17 ± 0.65 | change in expression of gene bhsA [1]: 4.78 ± 0.60 | change in expression of gene bssR [1]: −1.75 ± 1.29 | change in expression of gene bssS [1]: 4.08 ± 0.84 | change in expression of gene clpA [1]: 2.07 ± 0.63 | change in expression of gene clpB [1]: 4.51 ± 0.69 | change in expression of gene clpP [1]: 0.38 ± 0.59 | change in expression of gene coaA [1]: −3.09 ± 0.90 | change in expression of gene coaD [1]: −1.68 ± 0.97 | change in expression of gene cspA [1]: −4.88 ± 0.58 | change in expression of gene cspB [1]: −5.73 ± 1.38 | change in expression of gene cspC [1]: −3.36 ± 0.94 | change in expression of gene cspD [1]: 1.73 ± 0.58 | change in expression of gene cspE [1]: −1.94 ± 0.64 | change in expression of gene cspF [1]: −3.40 ± 1.07 | change in expression of gene dhaK [1]: 1.05 ± 0.59 | change in expression of gene dhaL [1]: −0.04 ± 0.64 | change in expression of gene dnaJ [1]: 3.71 ± 0.69 | change in expression of gene dnaK [1]: 4.53 ± 0.66 | change in expression of gene fabA [1]: −2.84 ± 0.81 | change in expression of gene fabB [1]: −0.39 ± 0.68 | change in expression of gene fabD [1]: −2.33 ± 0.53 | change in expression of gene flgA [1]: −3.05 ± 1.60 | change in expression of gene flgB [1]: −8.74 ± 1.90 | change in expression of gene flgC [1]: −8.87 ± 2.24 | change in expression of gene flgD [1]: −6.75 ± 2.03 | change in expression of gene flgE [1]: −4.68 ± 1.21 | change in expression of gene flgF [1]: −5.18 ± 1.70 | change in expression of gene flgG [1]: −6.73 ± 1.69 | change in expression of gene flgH [1]: −4.17 ± 1.80 | change in expression of gene gabD [1]: −2.21 ± 1.41 | change in expression of gene gabP [1]: −1.47 ± 1.32 | change in expression of gene gabT [1]: −1.57 ± 1.34 | change in expression of gene gadA [1]: −0.71 ± 0.69 | change in expression of gene gadB [1]: 0.96 ± 0.79 | change in expression of gene gadC [1]: 1.56 ± 0.80 | change in expression of gene gadE [1]: −0.46 ± 0.60 | change in expression of gene gadW [1]: −4.10 ± 0.99 | change in expression of gene gadX [1]: −2.01 ± 0.57 | change in expression of gene gadY [1]: −3.37 ± 0.80 | change in expression of gene glpA [1]: 5.44 ± 0.87 | change in expression of gene glpB [1]: 2.96 ± 0.64 | change in expression of gene glpC [1]: 2.92 ± 0.81 | change in expression of gene groL [1]: 4.05 ± 0.57 | change in expression of gene groS [1]: 4.43 ± 0.50 | change in expression of gene hchA [1]: 3.17 ± 0.60 | change in expression of gene hslJ [1]: 1.12 ± 0.66 | change in expression of gene hslO [1]: 1.72 ± 0.65 | change in expression of gene hslR [1]: 2.12 ± 0.65 | change in expression of gene hslU [1]: 1.52 ± 0.56 | change in expression of gene hslV [1]: 0.88 ± 0.62 | change in expression of gene ibpA [1]: 5.74 ± 1.21 | change in expression of gene ibpB [1]: 6.79 ± 1.50 | change in expression of gene lipA [1]: 0.31 ± 0.60 | change in expression of gene lipB [1]: −2.33 ± 0.69 | change in expression of gene narG [1]: 2.47 ± 0.65 | change in expression of gene narH [1]: 1.99 ± 0.62 | change in expression of gene narI [1]: 0.99 ± 0.94 | change in expression of gene narJ [1]: 1.39 ± 0.69 | change in expression of gene narK [1]: −0.93 ± 0.90 | change in expression of gene potA [1]: −5.42 ± 0.87 | change in expression of gene potB [1]: −2.50 ± 1.32 | change in expression of gene potC [1]: −2.97 ± 1.28 | change in expression of gene pspA [1]: 5.48 ± 0.55 | change in expression of gene pspB [1]: 3.26 ± 0.68 | change in expression of gene rpoA [1]: −0.58 ± 0.44 | change in expression of gene rpoB [1]: −0.72 ± 0.40 | change in expression of gene rpoC [1]: −1.03 ± 0.39 | change in expression of gene rpoD [1]: 1.30 ± 0.70 | change in expression of gene rpoE [1]: −1.10 ± 0.62 | change in expression of gene rpoH [1]: 1.72 ± 0.52 | change in expression of gene rpoN [1]: −1.50 ± 0.49 | change in expression of gene rpoS [1]: 1.73 ± 0.47 | change in expression of gene rpoZ [1]: −0.91 ± 0.54 | change in expression of gene spy [1]: 8.88 ± 0.87 | change in expression of gene tatA [1]: −2.04 ± 0.52 | change in expression of gene tatB [1]: −2.87 ± 0.60 | change in expression of gene tatC [1]: −4.38 ± 1.21 | change in expression of gene tatD [1]: −4.11 ± 1.20 | change in expression of gene tatE [1]: 0.70 ± 0.64 | number of genes with significant changes in expression: 831 genes

C1=CCCCC1 [cyclohexene]
expression of acid resistance genes (gad, adi families): downregulated | expression of chaperone proteins groLS, spy, and dnaJK: highly upregulated | expression of dihydroxyacetone kinase genes dhaKLM: upregulated | expression of galactitol metabolism genes gatABD: upregulated | expression of heat shock proteins and chaperones hslJORUV: increased | expression of ibpAB and clpAB (protein protection and repair): increased | expression of marABC (multiple antibiotic resistance): upregulated | expression of nitrate reductase genes narGHJKP: upregulated | expression of phage shock genes pspABCDE: highly upregulated | change in expression of gene adiA [1]: −1.87 ± 0.86 | change in expression of gene adiC [1]: −1.64 ± 1.02 | change in expression of gene adiY [1]: −2.84 ± 0.66 | change in expression of gene bhsA [1]: 4.18 ± 0.60 | change in expression of gene bssR [1]: 2.27 ± 0.44 | change in expression of gene bssS [1]: 6.69 ± 0.84 | change in expression of gene clpA [1]: 4.12 ± 0.63 | change in expression of gene clpB [1]: 6.17 ± 0.69 | change in expression of gene clpP [1]: 2.72 ± .59 | change in expression of gene coaA [1]: −1.36 ± 0.88 | change in expression of gene coaD [1]: 1.34 ± 0.90 | change in expression of gene cspA [1]: −6.07 ± 0.58 | change in expression of gene cspB [1]: −4.10 ± 1.31 | change in expression of gene cspC [1]: −3.65 ± 0.94 | change in expression of gene cspD [1]: 2.88 ± 0.57 | change in expression of gene cspE [1]: −0.06 ± 0.63 | change in expression of gene cspF [1]: −2.37 ± 1.04 | change in expression of gene dhaK [1]: 3.72 ± 0.59 | change in expression of gene dhaL [1]: 2.40 ± 0.62 | change in expression of gene dnaJ [1]: 6.64 ± 0.69 | change in expression of gene dnaK [1]: 5.96 ± 0.66 | change in expression of gene fabA [1]: −1.13 ± 0.76 | change in expression of gene fabB [1]: 1.01 ± 0.66 | change in expression of gene fabD [1]: −1.64 ± 0.53 | change in expression of gene flgA [1]: −0.73 ± 1.53 | change in expression of gene flgB [1]: −3.31 ± 1.51 | change in expression of gene flgC [1]: −4.46 ± 1.94 | change in expression of gene flgD [1]: −3.72 ± 1.87 | change in expression of gene flgE [1]: −2.82 ± 1.18 | change in expression of gene flgF [1]: −2.88 ± 1.58 | change in expression of gene flgG [1]: −2.77 ± 1.48 | change in expression of gene flgH [1]: −2.14 ± 1.71 | change in expression of gene gabD [1]: 0.11 ± 1.32 | change in expression of gene gabP [1]: 1.19 ± 1.28 | change in expression of gene gabT [1]: 0.31 ± 1.28 | change in expression of gene gadA [1]: −0.52 ± 0.68 | change in expression of gene gadB [1]: 0.17 ± 0.80 | change in expression of gene gadC [1]: 1.28 ± 0.80 | change in expression of gene gadE [1]: −3.51 ± 0.61 | change in expression of gene gadW [1]: −2.17 ± 0.95 | change in expression of gene gadX [1]: −3.69 ± 0.57 | change in expression of gene gadY [1]: −4.01 ± 0.80 | change in expression of gene glpA [1]: 7.06 ± 0.87 | change in expression of gene glpB [1]: 4.64 ± 0.63 | change in expression of gene glpC [1]: 5.02 ± 0.80 | change in expression of gene groL [1]: 4.57 ± 0.57 | change in expression of gene groS [1]: 4.63 ± 0.50 | change in expression of gene hchA [1]: 2.06 ± 0.60 | change in expression of gene hslJ [1]: 1.41 ± 0.66 | change in expression of gene hslO [1]: 4.56 ± 0.64 | change in expression of gene hslR [1]: 4.80 ± 0.65 | change in expression of gene hslU [1]: 4.95 ± 0.55 | change in expression of gene hslV [1]: 4.81 ± 0.61 | change in expression of gene ibpA [1]: 9.90 ± 1.21 | change in expression of gene ibpB [1]: 10.95 ± 1.50 | change in expression of gene lhgO [1]: 1.38 ± 1.64 | change in expression of gene lipA [1]: 0.42 ± 0.73 | change in expression of gene lipB [1]: 0.61 ± 1.03 | change in expression of gene narG [1]: 4.96 ± 0.65 | change in expression of gene narH [1]: 4.45 ± 0.61 | change in expression of gene narI [1]: 3.11 ± 0.92 | change in expression of gene narJ [1]: 4.11 ± 0.68 | change in expression of gene narK [1]: 3.31 ± 0.84 | change in expression of gene potA [1]: −2.79 ± 0.81 | change in expression of gene potB [1]: −1.05 ± 1.29 | change in expression of gene potC [1]: −0.55 ± 1.19 | change in expression of gene pspA [1]: 10.50 ± 0.55 | change in expression of gene pspB [1]: 9.33 ± 0.68 | change in expression of gene rpoA [1]: 0.17 ± 0.44 | change in expression of gene rpoB [1]: 0.79 ± 0.40 | change in expression of gene rpoC [1]: 1.15 ± 0.39 | change in expression of gene rpoD [1]: 4.75 ± 0.70 | change in expression of gene rpoE [1]: 1.44 ± 0.62 | change in expression of gene rpoH [1]: 1.79 ± 0.52 | change in expression of gene rpoN [1]: −1.54 ± 0.49 | change in expression of gene rpoS [1]: 0.22 ± 0.47 | change in expression of gene rpoZ [1]: −0.02 ± 0.53 | change in expression of gene spy [1]: 3.95 ± 0.87 | change in expression of gene tatA [1]: −1.95 ± 0.52 | change in expression of gene tatB [1]: −1.59 ± 0.59 | change in expression of gene tatC [1]: −1.25 ± 1.09 | change in expression of gene tatD [1]: −1.56 ± 1.13 | change in expression of gene tatE [1]: −0.97 ± 0.64 | number of genes with significant changes in expression: 530 genes
